US20260158172A1, “CELL DEATH METHOD USING CRISPR/CAS SYSTEM HAVING SINGLE-STRAND BREAK ACTIVITY AND PARP INHIBITOR” (INSTITUTE FOR BASIC SCIENCE, priority 2023, published 2026)

Legend:
Assay type in all cases: cell-based
[1] = tested on: HeLa cells; experiment: Cell viability (CellTiter-Glo), Experimental Example 4: dependence on olaparib concentration; conditions: nCas9 D10A RNP or siRNA co-treatment, Non-treated (label Olaparib) = PARP inhibitor only
Procedure: (§1) To transfect RNPs, cells were transfected with 665 ng of the Cas protein of each Embodiment and 95 ng of the sgRNA of each Embodiment using a Lipofectamine CRISPRMAX Cas9 Transfection Reagent (Invitrogen, #CMAX00015), and then cultured for 3 days. When treated together with a PARP inhibitor, the PARP inhibitor was treated according to Experimental Example 1.6, and the RNPs were treated one day thereafter.
(§2) To compare cell death effects depending on the concentration of a PARP inhibitor administered, the following experiment was performed. Specifically, Hela cells and HCT-116 cells cultured according to Experimental Example 1.1 were treated with a PARP inhibitor (olaparib) and a CRISPR/nCas composition for cell death having the compositions shown in the following table.
(§3) For each labeled material, experiments were conducted while varying the concentration of olaparib.
(§4) Here, in the case of siRNA, an siRNA having the sequence […] (SEQ ID NO: 40) was used, and 20 pmole thereof was delivered to the cells according to Experimental Example 1.7. After the experiment, cell viability was measured according to Experimental Example 1.8.

[2] = tested on: HCT-116 cells; experiment: as above; conditions: nCas9 D10A RNP or siRNA co-treatment, Non-treated (label Olaparib) = PARP inhibitor only
Procedure: as §1, §2, §3, §4

[3] = tested on: HeLa cells; experiment: Cell viability (CellTiter-Glo), Experimental Example 5: type of PARP inhibitor; conditions: olaparib 1 μM, rucaparib 1 μM, niraparib 0.1 μM, veliparib 2 μM
Procedure: (§5) A total of 0.5×10^4 cells were mixed with 1 μM olaparib (AZD2281) (Selleckchem, #S1060), 1 μM rucaparib (Selleckchem, #S4948), 0.1 μM niraparib (MK-4827) (Selleckchem, #S2741), 2 μM veliparib (ABT-888) (Selleckchem, #S1004), or 10 µM iniparib (BSI-201) (Selleckchem, #S1087), and seeded onto 24-well plates.
as §1
(§6) Cell viability was measured using a CellTiter-Glo Luminescent Cell Viability Assay (Promega, #G7571). After the transfected cells were cultured for 3 days, the cells were detached using Trypsin-EDTA (0.25%) (Gibco, #25200056). The cells were diluted in 400 μL of DMEM, followed by dispensing 100 μL of the cells, mixed with 100 μL of the CellTiter-Glo Reagent, and then incubated at room temperature for 10 minutes. Luminescence signals were measured using an Infinite 200 (Tecan) in a white opaque 96-well plate (Corning, #3917).
(§7) Specifically, Hela cells and HCT-116 cells cultured according to Experimental Example 1.1 were treated with a PARP inhibitor and a CRISPR/nCas composition for cell death having the compositions shown in the following table.
(§8) For each RNP composition of the embodiment using nCas9^D10A, one PARP inhibitor selected from olaparib, rucaparib, niraparib, veliparib, and iniparib was co-administered. DMSO was used as a control.
(§9) The Cas protein and the nCas protein used in this experiment were prepared according to Experimental Example 1.2, and the sgRNA used was prepared according to Experimental Example 1.3. The nCas protein and the sgRNA were administered to the cells in the form of RNPs according to Experimental Example 1.7. The cells were each treated with the respective PARP inhibitors at the concentrations disclosed in Experimental Example 1.6 using the materials disclosed in the above table.
(§10) Thereafter, cell viability was measured according to Experimental Example 1.8.

[4] = tested on: HCT-116 cells; experiment: as above; conditions: olaparib 1 μM, rucaparib 1 μM, niraparib 0.1 μM, veliparib 2 μM
Procedure: as §5, §1, §6, §7, §8, §9, §10

[5] = tested on: HeLa cells; experiment: Cell viability (CellTiter-Glo), Experimental Example 2: CRISPR/nCas composition for cell death with or without olaparib; conditions: relative cell viability, sgRNA delivered as nCas9 D10A RNP, Mock = no guide RNA
Procedure: as §5, §1, §6
(§11) To evaluate the cell death effects of a CRISPR/nCas composition for cell death and a PARP inhibitor, the following experiment was conducted. Specifically, Hela cells and HCT-116 cells cultured according to Experimental Example 1.1 were treated with a PARP inhibitor (olaparib) and a CRISPR/nCas composition for cell death having the compositions shown in the following table.
(§12) The nCas protein used in this experiment was prepared according to Experimental Example 1.2, and the sgRNA used was prepared according to Experimental Example 1.3. The nCas protein and the sgRNA were administered to the cells in the form of RNPs according to Experimental Example 1.7. In the case of the PARP inhibitor, the concentrations disclosed in the above table were applied to each cell according to Experimental Example 1.6.
as §10

[6] = tested on: HCT-116 cells; experiment: as above; conditions: relative cell viability, HCT-116, Olaparib (+): olaparib 1 μM, sgRNA delivered as nCas9 D10A RNP, Mock = no guide RNA
Procedure: as §5, §1, §6, §11, §12, §10

[7] = olaparib 10 μM, listed as olaparib
[8] = PARP inhibitor with nCas9^D10A, Target = Mock (PBS instead of sgRNA)
[9] = drug_only (no Cas protein, no guide RNA)

## O=C(c1cc(Cc2n[nH]c(=O)c3ccccc23)ccc1F)N1CCN(C(=O)C2CC2)CC1 [Olaparib, olaparib]
[1]; olaparib 0.0001 μM
  Relative cell viability (average, n = 3): 1.0000
[1]; olaparib 0.001 μM
  Relative cell viability (average, n = 3): 0.9810
[1]; olaparib 0.01 μM
  Relative cell viability (average, n = 3): 0.9959
[1]; olaparib 0.1 μM
  Relative cell viability (average, n = 3): 0.9391
[1]; olaparib 1 μM
  Relative cell viability (average, n = 3): 0.9279
[1]; olaparib 10 μM
  Relative cell viability (average, n = 3): 0.1192
[1]; [7]
  Relative cell viability (average, n = 3): exhibits cytotoxicity
[2]; olaparib 0.0001 μM
  Relative cell viability (average, n = 3): 1.0000
[2]; olaparib 0.001 μM
  Relative cell viability (average, n = 3): 0.9939
[2]; olaparib 0.01 μM
  Relative cell viability (average, n = 3): 0.9743
[2]; olaparib 0.1 μM
  Relative cell viability (average, n = 3): 1.0072
[2]; olaparib 1 μM
  Relative cell viability (average, n = 3): 1.0307
[2]; olaparib 10 μM
  Relative cell viability (average, n = 3): 0.7979
[2]; [7]
  Relative cell viability (average, n = 3): exhibits cytotoxicity
[3]; [8]
  Relative cell viability (average, n = 3): 0.9135
[3]; [9]
  Relative cell viability (average, n = 3): 0.8856
[4]; [8]
  Relative cell viability (average, n = 3): 1.0164
[4]; [9]
  Relative cell viability (average, n = 3): 1.1219
[5]; Olaparib (+): olaparib 1 μM
  Rep 1 (rel): 1.163
  Rep 2 (rel): 0.967
  Rep 3 (rel): 1.02
[5]; average of Rep 1-3, Olaparib (+): olaparib 1 μM
  Average: 1.05
[6]; average of Rep 1-3
  Average: 1.05
[6]
  Rep 1 (rel): 0.9889
  Rep 2 (rel): 1.027
  Rep 3 (rel): 1.131
